Data published in patent publication US9271962B2 (NORTHEASTERN UNIVERSITY, priority 2008, dated 2016).
Where two headings read alike, the source gives them in different places.

Assays:
hMGL = molecular target: T1, hMGL (Homo sapiens, UniProt Q99685); test: Fluorescent enzyme assay, MGL (AHMMCE hydrolysis); type: biochemical; settings: for inhibition at 1 µM: 1000 nM inhibitor; for inhibition at 0.01 µM: read-out: % Inhibition of Enzyme by inhibitor, MGL, 10 nM
T1 construct: A full-length cDNA clone of the human MGL transcript variant 1; made in house; host or cells: E. coli BL21 (DE3)
T1 sequence (Q99685 2-303 limits assumed): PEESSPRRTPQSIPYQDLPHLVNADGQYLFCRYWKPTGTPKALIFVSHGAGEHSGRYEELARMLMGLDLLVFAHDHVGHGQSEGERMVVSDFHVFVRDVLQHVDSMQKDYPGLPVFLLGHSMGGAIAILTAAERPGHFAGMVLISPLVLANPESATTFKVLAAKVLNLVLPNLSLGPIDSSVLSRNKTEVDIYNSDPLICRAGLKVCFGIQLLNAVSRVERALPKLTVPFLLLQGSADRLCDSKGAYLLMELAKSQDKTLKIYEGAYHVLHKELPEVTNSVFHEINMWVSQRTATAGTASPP
Description: (§1) Some analogs were tested for their FAAH/MGL inhibitory activity, which is expressed as % of inhibition (Tables 2, 3, and 4 below). The percentage of inhibition results from three-point assay (three concentrations of inhibitor are used) and it is less accurate (preliminary screening) than the IC50/Ki values that are determined from eight-point assay (eight different concentrations of inhibitor were used). The percentage of inhibition describes the percentage by which the inhibitor reduces the velocity/rate of AAMCA (arachidonoyl-7-amino-4-methylcoumarin amide) or AHMMCE (arachidonoyl-7-hydroxy-6-methoxy-4-methylcoumarin ester) hydrolysis by FAAH or MGL respectively. The IC50 is the concentration of the inhibitor, which results in 50% inhibition of the velocity/rate of AAMCA (arachidonoyl 7-amino-4-methylcoumarin amide) hydrolysis by FAAH or AHMMCE (Arachidonoyl, 7-hydroxy-6-methoxy-4-methylcoumarin ester) hydrolysis by MGL. The Ki value is the affinity constant and describes the ability of the compounds to inhibit the function of FAAH or MGL. The lower the IC50/Ki values, the higher the affinity of the inhibitor for the enzyme and the higher its inhibitory activity. A detailed description of the methods used to test inhibitory activity of compounds is given below.
A full-length cDNA clone of the human MGL transcript variant 1 (gi: 51242951) was obtained from OriGene Technologies (Rockville, Md.). The coding part of the MGL sequence (except the translation initiation codon ATG) was amplified by a polymerase chain reaction (PCR) using forward […] and reverse […] primers containing PmlI and SacI restriction enzyme recognition sites, respectively. iProof high-fidelity DNA polymerase (Bio-Rad, Hercules, Calif.) was used in the PCR amplification with 33 cycles, each consisting of denaturation at 94° C. for 10 s, annealing at 55° C. for 33 s, and extension at 72° C. for 1 min. The PCR product and pET45b vector were digested with PmlI and SacI restriction enzymes, and the vector was dephosphorylated with CIP followed by in-gel purification using the MinElute Gel Extraction Kit (Qiagen Corp., Valencia, Calif.). The fragment was inserted into the vector directly downstream after the 6 histidine and valine codons, generating the construct pET45His6hMGL for expression of hMGL containing an N-terminal His6-tag. GC10 E. coli cells were used for DNA transformation and plasmid propagation. Mini- and midi-scale plasmid DNA preparations were performed using a GenElute Plasmid Miniprep Kit (Sigma) and PureYield Plasmid Midiprep System (Promega, Madison, Wis.), respectively. In-frame vector-fragment junctions and the coding sequence of the recombinant gene were confirmed by sequencing. The pET45His6hMGL construct was transformed into BL21 (DE3) and Origami (DE3) E. coli expression strains (Novagen, Madison, Wis.).
A single E. coli BL21 (DE3) colony containing the pET45His6hMGL plasmid was inoculated into 12 mL of Luria broth-ampicillin medium and grown overnight with shaking (250 rpm) at 37° C. The next morning, 10 mL of this culture was inoculated into 1 L of fresh Luria broth-ampicillin and allowed to grow until culture turbidity reached an (OD)600 of 0.6-0.8, at which time expression from the T7 promoter was induced by adding isopropyl-β-D-thio-galactopyranoside (1 mM). After 5 h induction, the cells were harvested by centrifugation at 5,000 g for 10 min at 4° C., washed with PBS, and held at −80° C. Five grams (wet-weight) of cells were resuspended in 50 mL lysis buffer (100 mM NaCl; 50 mM Tris, pH 8.0) supplemented with Triton X-100 (0.5%), lysozyme (0.2 mg/mL), and DNase I (25 μg/ml) and disrupted on ice by three, one-min sonication cycles, each consisting of 1-sec sonication bursts at 50 W power separated from each other by a 2-sec interval (Vibra-Cell 500 W, Sonics, Newtown, Conn.). The cell lysate was centrifuged at 10,000 g for 30 min at 4° C. […]

ΔTM rFAAH = molecular target: T2, ΔTM rFAAH (Rattus norvegicus, UniProt P97612); test: Fluorescent enzyme assay, FAAH (AAMCA hydrolysis); type: biochemical; settings: AAMCA substrate; for inhibition at 1 µM: 1000 nM inhibitor; for inhibition at 1 µM / inhibition at 0.01 µM: screening assay; for inhibition at 0.01 µM: 10 nM inhibitor
T2 construct: 15 ug of ΔTM rFAAH (cell lysate obtained by recombinant procedure); made in house
T2 sequence (P97612 30-579 limits assumed): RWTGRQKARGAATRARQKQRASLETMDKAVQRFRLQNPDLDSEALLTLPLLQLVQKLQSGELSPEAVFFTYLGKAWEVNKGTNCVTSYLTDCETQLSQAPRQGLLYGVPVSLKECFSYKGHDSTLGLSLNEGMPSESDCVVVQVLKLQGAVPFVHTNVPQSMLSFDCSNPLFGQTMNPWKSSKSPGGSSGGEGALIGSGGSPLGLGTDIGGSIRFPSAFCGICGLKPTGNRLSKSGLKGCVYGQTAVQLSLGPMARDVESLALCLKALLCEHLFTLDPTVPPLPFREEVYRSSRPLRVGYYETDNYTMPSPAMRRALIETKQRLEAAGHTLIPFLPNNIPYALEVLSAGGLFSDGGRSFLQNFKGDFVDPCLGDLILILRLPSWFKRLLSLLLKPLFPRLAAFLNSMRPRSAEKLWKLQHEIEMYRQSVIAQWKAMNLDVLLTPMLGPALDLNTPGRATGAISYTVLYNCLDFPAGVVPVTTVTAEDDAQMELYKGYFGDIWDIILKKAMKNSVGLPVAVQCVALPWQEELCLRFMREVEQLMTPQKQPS
Description: as §1
The enzyme (FAAH and MGL) assays were performed in 96 well plates (Coster #3650) in a total volume of 200 uL. Fluorogenic substrate AAMCA (arachidonoyl 7-amino-4-methylcoumarin amide) for FAAH and AHMMCE (arachidonoyl 7-hydroxy-6-methoxy-4-methylcoumarin ester) for MGL were used using BioTek Synergy HT Microplate Reader. Compounds and substrates were dissolved in DMSO provide a 10 mM stock solution and kept as a stock solution at −20° C. until used for assay. Stock solutions were thawed and reconstituted in 50:50 DMSO/assay buffer to a final DMSO concentration per well below 8%. This ensures that the compounds and substrate are in solution during assay. […] Appropriate substrate was added to adjust the final concentration in each well to 20 uM for FAAH (2× Km) and 10 uM for MGL (1×KM). Fluorescence readings were performed at λex=360/λem=460 for 4 h using Kinetic assay protocol at every 20 min (the fluorescent product coumarin produced is quantitated by this procedure). The readings at 3 h for FAAH and 2 h for MGL (linear maximum hydrolysis kinetics of enzyme on substrate) were used to calculate percent inhibition based on controls. Compounds which had more than 50 percent inhibition at 10 uM were selected for dose response study to determine IC50 values. The dose response at 8 concentration points was performed as with the screening assay except that compounds were serially diluted to 8 concentration points which were chosen based on IC50 value, which were calculated from the screening assay results. Assays are run twice in triplicates and Graphpad Prism software is used to plot inhibition data to obtain IC50 values.

[1] = AHMMCE substrate, screening assay
[2] = 10 nM inhibitor, AHMMCE substrate, screening assay

CN(C)C(=O)n1nnc(Cc2ccncc2)n1 [Compound 39, N,N-dimethyl-5-(pyridin-4-ylmethyl)-2H-tetrazole-2-carboxamide]
inhibition at 1 µM (hMGL; [1]): 40% | inhibition at 1 µM (ΔTM rFAAH): 21%

CN(C)C(=O)n1nnc(Cc2ccc(Cl)cc2)n1 [Compound 21a]
inhibition at 0.01 µM (hMGL; [2]): 97% | inhibition at 0.01 µM (ΔTM rFAAH): 93%

CN(C)C(=O)N1CC(C(C)(C)C)OC1=O (stereo not drawn) [Compound 31, 5-tert-butyl-N,N-dimethyl-2-oxooxazolidine-3-carboxamide]
inhibition at 1 µM (hMGL; [1]): 66% | inhibition at 1 µM (ΔTM rFAAH): 63%

CN(C)C(=O)N1CC(Cc2ccccc2)OC1=O (stereo not drawn) [Compound 32, 5-benzyl-N,N-dimethyl-2-oxooxazolidine-3-carboxamide]
inhibition at 1 µM (hMGL; [1]): 3% | inhibition at 1 µM (ΔTM rFAAH): 5%

CN(C)C(=O)n1cnc(-c2ccccc2)c1 [Compound 33, N,N-dimethyl-4-phenyl-1H-imidazole-1-carboxamide]
inhibition at 1 µM (hMGL; [1]): 6% | inhibition at 1 µM (ΔTM rFAAH): 88%

CN(C)C(=O)n1nnc(Cc2ccc(OC(F)(F)F)cc2)n1 [Compound 19a]
inhibition at 0.01 µM (hMGL; [2]): 99% | inhibition at 0.01 µM (ΔTM rFAAH): 92%

CN(C)C(=O)n1cnnn1 [Compound 1b]
inhibition at 0.01 µM (hMGL; [2]): 13% | inhibition at 0.01 µM (ΔTM rFAAH): 51%

CN(C)C(=O)n1nnc(Cc2ccc(-c3ccncc3)cc2)n1 [Compound 44, N,N-dimethyl-5-(4-(pyridin-4-yl)benzyl)-2H-tetrazole-2-carboxamide]
inhibition at 1 µM (hMGL; [1]): 10% | inhibition at 1 µM (ΔTM rFAAH): 12%

CN(C)C(=O)n1nnc(Cc2ccc(Br)cc2)n1 [Compound 16a, 5-(4-bromobenzyl)-N,N-dimethyl-2H-tetrazole-2-carboxamide]
inhibition at 0.01 µM (hMGL; [2]): 98% | inhibition at 0.01 µM (ΔTM rFAAH): 92%

COc1ccc(Cc2nnn(C(=O)N(C)C)n2)cc1 [Compound 24a, 5-(4-methoxybenzyl)-N,N-dimethyl-2H-tetrazole-2-carboxamide]
inhibition at 0.01 µM (hMGL; [2]): 21% | inhibition at 0.01 µM (ΔTM rFAAH): 47%

CN(CCCCCl)C(=O)n1cnc(-c2ccccc2)n1 [Compound 53, N-(4-chlorobutyl)-N-methyl-3-phenyl-1H-1,2,4-triazole-1-carboxamide]
inhibition at 0.01 µM (hMGL; [2]): 13% | inhibition at 1 µM (hMGL; [1]): 71% | inhibition at 1 µM (ΔTM rFAAH): 100%

CN(C)C(=O)n1nnnc1CC(=O)c1ccccc1 [Compound 4, N,N-dimethyl-5-(2-oxo-2-phenylethyl)-1H-tetrazole-1-carboxamide]
inhibition at 0.01 µM (hMGL; [2]): 90% | inhibition at 0.01 µM (ΔTM rFAAH): 100%

CN(C)C(=O)Oc1ccc(Cc2nnnn2C(=O)N(C)C)cc1 [Compound 36b, 4-((1-(dimethylcarbamoyl)-1H-tetrazol-5-yl)methyl)phenyl dimethylcarbamate]
inhibition at 0.01 µM (hMGL): 98% | inhibition at 0.01 µM (ΔTM rFAAH): 82%

CN(C)C(=O)n1nnnc1Cc1ccc(Cl)cc1Cl [Compound 17b]
inhibition at 0.01 µM (hMGL; [2]): 97% | inhibition at 0.01 µM (ΔTM rFAAH): 86%

CC(=O)Nc1ccc(Cc2nnnn2C(=O)N(C)C)cc1 [Compound 25b]
inhibition at 1 µM (hMGL; [1]): 90% | inhibition at 1 µM (ΔTM rFAAH): 88%

CN(C)C(=O)n1nnnc1Cc1ccc(I)cc1 [Compound 18b]
inhibition at 0.01 µM (hMGL; [2]): 64% | inhibition at 0.01 µM (ΔTM rFAAH): 86%

CCN(CC)C(=O)n1nnc(Cc2ccc(Cl)cc2Cl)n1 [Compound 9, 5-(2,4-dichlorobenzyl)-N,N-diethyl-tetrazole-2-carboxamide]
inhibition at 0.01 µM (hMGL; [2]): 43% | inhibition at 0.01 µM (ΔTM rFAAH): 95%

CN(C)C(=O)n1nnc(Cc2ccccc2)n1 [Compound 34, 5-benzyl-N,N-dimethyl-2H-tetrazole-2-carboxamide]
inhibition at 0.01 µM (hMGL; [2]): 100% | inhibition at 0.01 µM (ΔTM rFAAH): 91%

CN(C)C(=O)n1nnnc1-c1cc2ccccc2[nH]1 [Compound 3b, 5-(1H-indol-2-yl)-N,N-dimethyl-2H-tetrazole-1-carboxamide]
inhibition at 0.01 µM (hMGL; [2]): 92% | inhibition at 0.01 µM (ΔTM rFAAH): 97%

Cc1ccc(Cc2nnnn2C(=O)N(C)C)cc1 [Compound 26b]
inhibition at 0.01 µM (hMGL; [2]): 23% | inhibition at 0.01 µM (ΔTM rFAAH): 85%

CN(CCCCN=C=S)C(=O)n1cnc(-c2ccccc2)c1 [Compound 49, N-(4-isothiocyanatobutyl)-N-methyl-4-phenyl-1H-imidazole-1-carboxamide]
inhibition at 1 µM (hMGL; [1]): 7% | inhibition at 0.01 µM (ΔTM rFAAH): 25% | inhibition at 1 µM (ΔTM rFAAH): 90% | IC50 (ΔTM rFAAH; eight-point dose response): 42 nM

O=C(N1CCC2(CC1)OCCO2)n1nnc(Cc2ccc(Cl)cc2Cl)n1 [Compound 14]
inhibition at 1 µM (hMGL; [1]): 52% | inhibition at 1 µM (ΔTM rFAAH): 97%

CN(C)C(=O)n1ccc(-c2ccccc2)n1 [Compound 30, N,N-dimethyl-3-phenyl-1H-pyrazole-1-carboxamide]
inhibition at 1 µM (hMGL; [1]): 11% | inhibition at 1 µM (ΔTM rFAAH): 23%

CN(C)C(=O)n1ncnn1 [Compound 1a, N,N-dimethyl-2H-tetrazole-2-carboxamide]
inhibition at 0.01 µM (hMGL; [2]): 58% | inhibition at 0.01 µM (ΔTM rFAAH): 73%
